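Tested at 5 concentrations; 48 h exposure; 96-well plates; endpoints linearly interpolated, else capped at highest concentration. GI50 is the concentration that inhibits growth by half. TGI: concentration producing complete growth inhibition.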
What was measured:
Experiment in all cases: NCI-60 cell line screen, 48 h
MOLT-4 leukemia = test system: MOLT-4 leukemia
786-0 renal = test system: 786-0 renal
UACC-62 melanoma = test system: UACC-62 melanoma
SK-MEL-5 melanoma = test system: SK-MEL-5 melanoma
HS 578T breast = test system: HS 578T breast
K-562 leukemia = test system: K-562 leukemia
UACC-257 melanoma = test system: UACC-257 melanoma
HCT-116 colon = test system: HCT-116 colon
SR leukemia = test system: SR leukemia
HOP-62 NSCLC = test system: HOP-62 NSCLC
SN12C renal = test system: SN12C renal
SNB-19 CNS = test system: SNB-19 CNS
BT-549 breast = test system: BT-549 breast
NCI-H23 lung = test system: NCI-H23 lung
RXF 393 renal = test system: RXF 393 renal
DU-145 prostate = test system: DU-145 prostate
LOX IMVI melanoma = test system: LOX IMVI melanoma
SNB-75 CNS = test system: SNB-75 CNS
TK-10 renal = test system: TK-10 renal
CAKI-1 renal = test system: CAKI-1 renal
SF-268 CNS = test system: SF-268 CNS
ACHN renal = test system: ACHN renal
NCI-H460 lung = test system: NCI-H460 lung
SW-620 colon = test system: SW-620 colon
A549 NSCLC = test system: A549 NSCLC
NCI-H522 lung = test system: NCI-H522 lung
COLO 205 colon = test system: COLO 205 colon
SK-OV-3 ovarian = test system: SK-OV-3 ovarian
SF-539 CNS = test system: SF-539 CNS
M14 melanoma = test system: M14 melanoma
OVCAR-5 ovarian = test system: OVCAR-5 ovarian
RPMI-8226 leukemia = test system: RPMI-8226 leukemia
OVCAR-8 ovarian = test system: OVCAR-8 ovarian
MCF7 breast = test system: MCF7 breast
HL-60(TB) leukemia = test system: HL-60(TB) leukemia
HT29 colon = test system: HT29 colon
T-47D breast = test system: T-47D breast
MALME-3M melanoma = test system: MALME-3M melanoma
HCT-15 colon = test system: HCT-15 colon
U251 CNS = test system: U251 CNS
SF-295 CNS = test system: SF-295 CNS
SK-MEL-28 melanoma = test system: SK-MEL-28 melanoma
EKVX NSCLC = test system: EKVX NSCLC
A498 renal = test system: A498 renal
UO-31 renal = test system: UO-31 renal
KM12 colon = test system: KM12 colon
IGROV1 ovarian = test system: IGROV1 ovarian
SK-MEL-2 melanoma = test system: SK-MEL-2 melanoma
HCC-2998 colon = test system: HCC-2998 colon
OVCAR-4 ovarian = test system: OVCAR-4 ovarian
OVCAR-3 ovarian = test system: OVCAR-3 ovarian
CCRF-CEM leukemia = test system: CCRF-CEM leukemia
PC-3 prostate = test system: PC-3 prostate
NCI-H226 lung = test system: NCI-H226 lung
HOP-92 NSCLC = test system: HOP-92 NSCLC
MDA-MB-231 breast = test system: MDA-MB-231 breast
NCI/ADR-RES ovarian = test system: NCI/ADR-RES ovarian

Cn1cc(-c2cc(-c3cn(C)c4ccccc34)[nH]n2)c2ccccc21
GI50 (MOLT-4 leukemia): 4.75 µM | TGI (MOLT-4 leukemia): 20.8 µM | GI50 (786-0 renal): 14.1 µM | TGI (786-0 renal): 41.2 µM | GI50 (UACC-62 melanoma): 16.4 µM | TGI (UACC-62 melanoma): > 100 µM | GI50 (SK-MEL-5 melanoma): 13.1 µM | TGI (SK-MEL-5 melanoma): > 100 µM | GI50 (HS 578T breast): 18.5 µM | TGI (HS 578T breast): > 100 µM | GI50 (K-562 leukemia): 42.1 µM | TGI (K-562 leukemia): > 100 µM | GI50 (UACC-257 melanoma): 80.6 µM | TGI (UACC-257 melanoma): > 100 µM | GI50 (HCT-116 colon): 19 µM | TGI (HCT-116 colon): > 100 µM | GI50 (SR leukemia): 3.46 µM | TGI (SR leukemia): 14.8 µM | GI50 (HOP-62 NSCLC): 17.3 µM | TGI (HOP-62 NSCLC): 60 µM | GI50 (SN12C renal): 1.95 µM | TGI (SN12C renal): 23.1 µM | GI50 (SNB-19 CNS): 27 µM | TGI (SNB-19 CNS): > 100 µM | GI50 (BT-549 breast): 15.9 µM | TGI (BT-549 breast): 61.7 µM | GI50 (NCI-H23 lung): 22 µM | TGI (NCI-H23 lung): > 100 µM | GI50 (RXF 393 renal): 14.7 µM | TGI (RXF 393 renal): 38.7 µM | GI50 (DU-145 prostate): 15.6 µM | TGI (DU-145 prostate): > 100 µM | GI50 (LOX IMVI melanoma): 5.38 µM | TGI (LOX IMVI melanoma): > 100 µM | GI50 (SNB-75 CNS): 18.4 µM | TGI (SNB-75 CNS): 69.9 µM | GI50 (TK-10 renal): 37.4 µM | TGI (TK-10 renal): > 100 µM | GI50 (CAKI-1 renal): > 100 µM | TGI (CAKI-1 renal): > 100 µM | GI50 (SF-268 CNS): 16 µM | TGI (SF-268 CNS): > 100 µM | GI50 (ACHN renal): 7.68 µM | TGI (ACHN renal): > 100 µM | GI50 (NCI-H460 lung): 4.48 µM | TGI (NCI-H460 lung): > 100 µM | GI50 (SW-620 colon): > 100 µM | TGI (SW-620 colon): > 100 µM | GI50 (A549 NSCLC): 16.3 µM | TGI (A549 NSCLC): > 100 µM | GI50 (NCI-H522 lung): 22.1 µM | TGI (NCI-H522 lung): > 100 µM | GI50 (COLO 205 colon): 7.98 µM | TGI (COLO 205 colon): > 100 µM | GI50 (SK-OV-3 ovarian): 31.6 µM | TGI (SK-OV-3 ovarian): > 100 µM | GI50 (SF-539 CNS): 16.2 µM | TGI (SF-539 CNS): 44.3 µM | GI50 (M14 melanoma): > 100 µM | TGI (M14 melanoma): > 100 µM | GI50 (OVCAR-5 ovarian): > 100 µM | TGI (OVCAR-5 ovarian): > 100 µM | GI50 (RPMI-8226 leukemia): 37.8 µM | TGI (RPMI-8226 leukemia): > 100 µM | GI50 (OVCAR-8 ovarian): 28.8 µM | TGI (OVCAR-8 ovarian): > 100 µM | GI50 (MCF7 breast): 3.95 µM | TGI (MCF7 breast): > 100 µM | GI50 (HL-60(TB) leukemia): 15.4 µM | TGI (HL-60(TB) leukemia): 62.8 µM | GI50 (HT29 colon): 5.35 µM | TGI (HT29 colon): > 100 µM | GI50 (T-47D breast): 79.7 µM | TGI (T-47D breast): > 100 µM | GI50 (MALME-3M melanoma): 93.1 µM | TGI (MALME-3M melanoma): > 100 µM | GI50 (HCT-15 colon): 8.68 µM | TGI (HCT-15 colon): > 100 µM | GI50 (U251 CNS): 12.9 µM | TGI (U251 CNS): 46.9 µM | GI50 (SF-295 CNS): 17.1 µM | TGI (SF-295 CNS): > 100 µM | GI50 (SK-MEL-28 melanoma): > 100 µM | TGI (SK-MEL-28 melanoma): > 100 µM | GI50 (EKVX NSCLC): 27.2 µM | TGI (EKVX NSCLC): > 100 µM | GI50 (A498 renal): 19.6 µM | TGI (A498 renal): 90.3 µM | GI50 (UO-31 renal): 37.6 µM | TGI (UO-31 renal): > 100 µM | GI50 (KM12 colon): 4.58 µM | TGI (KM12 colon): > 100 µM | GI50 (IGROV1 ovarian): 8.9 µM | TGI (IGROV1 ovarian): 74.1 µM | GI50 (SK-MEL-2 melanoma): 57.5 µM | TGI (SK-MEL-2 melanoma): > 100 µM | GI50 (HCC-2998 colon): 4.74 µM | TGI (HCC-2998 colon): > 100 µM | GI50 (OVCAR-4 ovarian): 34.9 µM | TGI (OVCAR-4 ovarian): > 100 µM | GI50 (OVCAR-3 ovarian): 28.4 µM | TGI (OVCAR-3 ovarian): > 100 µM | GI50 (CCRF-CEM leukemia): 14.4 µM | TGI (CCRF-CEM leukemia): 29.3 µM | GI50 (PC-3 prostate): 8.11 µM | TGI (PC-3 prostate): > 100 µM | GI50 (NCI-H226 lung): 19.8 µM | TGI (NCI-H226 lung): 99 µM | GI50 (HOP-92 NSCLC): 2.06 µM | TGI (HOP-92 NSCLC): 9.57 µM | GI50 (MDA-MB-231 breast): 8.06 µM | TGI (MDA-MB-231 breast): > 100 µM | GI50 (NCI/ADR-RES ovarian): 27.6 µM | TGI (NCI/ADR-RES ovarian): > 100 µM

Source: PubChem BioAssay (NCI)
